Assay results reported in PubChem BioAssay (NCI).
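Method: 48-hour compound exposure of cells in 96-well plates, five concentrations, linear interpolation of endpoints. Abbreviation: GI50, concentration required for 50% inhibition of growth. TGI marks complete inhibition of growth.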

Legend:
Assay in all cases: NCI tumour cell line growth inhibition, 48 h
NCI/ADR-RES ovarian = system: NCI/ADR-RES ovarian
OVCAR-8 ovarian = system: OVCAR-8 ovarian
UO-31 renal = system: UO-31 renal
NCI-H460 lung = system: NCI-H460 lung
MCF7 breast = system: MCF7 breast
HCT-116 colon = system: HCT-116 colon
EKVX NSCLC = system: EKVX NSCLC
UACC-62 melanoma = system: UACC-62 melanoma
SNB-75 CNS = system: SNB-75 CNS
MALME-3M melanoma = system: MALME-3M melanoma
SK-MEL-5 melanoma = system: SK-MEL-5 melanoma
IGROV1 ovarian = system: IGROV1 ovarian
HS 578T breast = system: HS 578T breast
SN12C renal = system: SN12C renal
T-47D breast = system: T-47D breast
LOX IMVI melanoma = system: LOX IMVI melanoma
SR leukemia = system: SR leukemia
SK-MEL-2 melanoma = system: SK-MEL-2 melanoma
M14 melanoma = system: M14 melanoma
HOP-92 NSCLC = system: HOP-92 NSCLC
RPMI-8226 leukemia = system: RPMI-8226 leukemia
SK-MEL-28 melanoma = system: SK-MEL-28 melanoma
HCC-2998 colon = system: HCC-2998 colon
NCI-H226 lung = system: NCI-H226 lung
OVCAR-3 ovarian = system: OVCAR-3 ovarian
NCI-H522 lung = system: NCI-H522 lung
A498 renal = system: A498 renal
COLO 205 colon = system: COLO 205 colon
SF-295 CNS = system: SF-295 CNS
OVCAR-5 ovarian = system: OVCAR-5 ovarian
KM12 colon = system: KM12 colon
786-0 renal = system: 786-0 renal
UACC-257 melanoma = system: UACC-257 melanoma
MOLT-4 leukemia = system: MOLT-4 leukemia
SF-539 CNS = system: SF-539 CNS
U251 CNS = system: U251 CNS
RXF 393 renal = system: RXF 393 renal
CAKI-1 renal = system: CAKI-1 renal
HCT-15 colon = system: HCT-15 colon
MDA-MB-231 breast = system: MDA-MB-231 breast
PC-3 prostate = system: PC-3 prostate
DU-145 prostate = system: DU-145 prostate
BT-549 breast = system: BT-549 breast
SW-620 colon = system: SW-620 colon
CCRF-CEM leukemia = system: CCRF-CEM leukemia
HOP-62 NSCLC = system: HOP-62 NSCLC
A549 NSCLC = system: A549 NSCLC
SNB-19 CNS = system: SNB-19 CNS
SF-268 CNS = system: SF-268 CNS
SK-OV-3 ovarian = system: SK-OV-3 ovarian
TK-10 renal = system: TK-10 renal
NCI-H23 lung = system: NCI-H23 lung
ACHN renal = system: ACHN renal
OVCAR-4 ovarian = system: OVCAR-4 ovarian
K-562 leukemia = system: K-562 leukemia
MDA-MB-435 = system: MDA-MB-435
HL-60(TB) leukemia = system: HL-60(TB) leukemia

Compound: O=[N+]([O-])c1ccc(Br)c([N+](=O)[O-])c1
- GI50 (NCI/ADR-RES ovarian): 2.39 µM
- TGI (NCI/ADR-RES ovarian): 5.69 µM
- GI50 (OVCAR-8 ovarian): 2.49 µM
- TGI (OVCAR-8 ovarian): 6.05 µM
- GI50 (UO-31 renal): 0.266 µM
- TGI (UO-31 renal): 0.779 µM
- GI50 (NCI-H460 lung): 2.56 µM
- TGI (NCI-H460 lung): 8.72 µM
- GI50 (MCF7 breast): 1.9 µM
- TGI (MCF7 breast): 4.75 µM
- GI50 (HCT-116 colon): 2.09 µM
- TGI (HCT-116 colon): 5.02 µM
- GI50 (EKVX NSCLC): 1.84 µM
- TGI (EKVX NSCLC): 4 µM
- GI50 (UACC-62 melanoma): 2.56 µM
- TGI (UACC-62 melanoma): 6.87 µM
- GI50 (SNB-75 CNS): 1.69 µM
- TGI (SNB-75 CNS): 4.36 µM
- GI50 (MALME-3M melanoma): 1.96 µM
- TGI (MALME-3M melanoma): 4.18 µM
- GI50 (SK-MEL-5 melanoma): 2.3 µM
- TGI (SK-MEL-5 melanoma): 5.64 µM
- GI50 (IGROV1 ovarian): 1.92 µM
- TGI (IGROV1 ovarian): 3.94 µM
- GI50 (HS 578T breast): 1.98 µM
- TGI (HS 578T breast): 4.97 µM
- GI50 (SN12C renal): 2.37 µM
- TGI (SN12C renal): 5.68 µM
- GI50 (T-47D breast): 2.13 µM
- TGI (T-47D breast): 4.94 µM
- GI50 (LOX IMVI melanoma): 1.67 µM
- TGI (LOX IMVI melanoma): 3.38 µM
- GI50 (SR leukemia): 1.56 µM
- TGI (SR leukemia): 5.64 µM
- GI50 (SK-MEL-2 melanoma): 3.23 µM
- TGI (SK-MEL-2 melanoma): 10.3 µM
- GI50 (M14 melanoma): 1.74 µM
- TGI (M14 melanoma): 3.27 µM
- GI50 (HOP-92 NSCLC): 1.94 µM
- TGI (HOP-92 NSCLC): 4.02 µM
- GI50 (RPMI-8226 leukemia): 2.36 µM
- TGI (RPMI-8226 leukemia): 5.51 µM
- GI50 (SK-MEL-28 melanoma): 1.89 µM
- TGI (SK-MEL-28 melanoma): 3.64 µM
- GI50 (HCC-2998 colon): 4.73 µM
- TGI (HCC-2998 colon): 16.7 µM
- GI50 (NCI-H226 lung): 8.36 µM
- TGI (NCI-H226 lung): 23.5 µM
- GI50 (OVCAR-3 ovarian): 1.88 µM
- TGI (OVCAR-3 ovarian): 3.38 µM
- GI50 (NCI-H522 lung): 0.163 µM
- TGI (NCI-H522 lung): 0.355 µM
- GI50 (A498 renal): 14.3 µM
- TGI (A498 renal): 27.7 µM
- GI50 (COLO 205 colon): 1.72 µM
- TGI (COLO 205 colon): 3.32 µM
- GI50 (SF-295 CNS): 2.38 µM
- TGI (SF-295 CNS): 5.96 µM
- GI50 (OVCAR-5 ovarian): 1.77 µM
- TGI (OVCAR-5 ovarian): 3.5 µM
- GI50 (KM12 colon): 1.8 µM
- TGI (KM12 colon): 3.23 µM
- GI50 (786-0 renal): 3.35 µM
- TGI (786-0 renal): 10.9 µM
- GI50 (UACC-257 melanoma): 1.86 µM
- TGI (UACC-257 melanoma): 3.37 µM
- GI50 (MOLT-4 leukemia): 2.52 µM
- TGI (MOLT-4 leukemia): 6.71 µM
- GI50 (SF-539 CNS): 2.06 µM
- TGI (SF-539 CNS): 5.01 µM
- GI50 (U251 CNS): 1.72 µM
- TGI (U251 CNS): 3.29 µM
- GI50 (RXF 393 renal): 1.83 µM
- TGI (RXF 393 renal): 3.36 µM
- GI50 (CAKI-1 renal): 0.406 µM
- TGI (CAKI-1 renal): 0.954 µM
- GI50 (HCT-15 colon): 1.93 µM
- TGI (HCT-15 colon): 4.59 µM
- GI50 (MDA-MB-231 breast): 2.68 µM
- TGI (MDA-MB-231 breast): 7.12 µM
- GI50 (PC-3 prostate): 1.94 µM
- TGI (PC-3 prostate): 3.93 µM
- GI50 (DU-145 prostate): 1.72 µM
- TGI (DU-145 prostate): 3.12 µM
- GI50 (BT-549 breast): 5.32 µM
- TGI (BT-549 breast): 10.9 µM
- GI50 (SW-620 colon): 1.83 µM
- TGI (SW-620 colon): 4.13 µM
- GI50 (CCRF-CEM leukemia): 1.79 µM
- TGI (CCRF-CEM leukemia): 6.83 µM
- GI50 (HOP-62 NSCLC): 1.78 µM
- TGI (HOP-62 NSCLC): 3.24 µM
- GI50 (A549 NSCLC): 4.12 µM
- TGI (A549 NSCLC): 16.4 µM
- GI50 (SNB-19 CNS): 2.9 µM
- TGI (SNB-19 CNS): 9.28 µM
- GI50 (SF-268 CNS): 1.93 µM
- TGI (SF-268 CNS): 3.94 µM
- GI50 (SK-OV-3 ovarian): 8.37 µM
- TGI (SK-OV-3 ovarian): 20.6 µM
- GI50 (TK-10 renal): 2.3 µM
- TGI (TK-10 renal): 6.22 µM
- GI50 (NCI-H23 lung): 1.82 µM
- TGI (NCI-H23 lung): 3.66 µM
- GI50 (ACHN renal): 1.8 µM
- TGI (ACHN renal): 3.48 µM
- GI50 (OVCAR-4 ovarian): 1.72 µM
- TGI (OVCAR-4 ovarian): 3.19 µM
- GI50 (K-562 leukemia): 1.98 µM
- TGI (K-562 leukemia): > 23.5 µM
- GI50 (MDA-MB-435): 1.85 µM
- TGI (MDA-MB-435): 3.58 µM
- GI50 (HL-60(TB) leukemia): 1.41 µM
- TGI (HL-60(TB) leukemia): 3.54 µM
